{
  "source": "patent US12699090B2",
  "about": "(priority 2019, dated 2026)",
  "note": "Entries after “also recorded” stand apart in the source; their conditions may differ.",
  "data": [
    {"tested_on": "PBMCs isolated from naturally M. bovis-infected cattle", "format": "cell-based, cattle (Bos taurus taurus)", "values": [
      {"sequence": "AANKQKQELDEISTNIRQAGVQYSRADEEQQQALSSQMGF [compound 8]", "recognition of individual peptide (IFN-γ ELISPOT response, Z-scores)": "far stronger response"},
      {"sequence": "AITHGPYCSQFNDTLNVYLT (artificial protein fragment) [compound 39, short Rv3615c peptide]", "recognition of individual peptide (IFN-γ ELISPOT response, Z-scores)": "poor recognition could be compensated"},
      {"sequence": "AITHGPYCSQFNDTLNVYLTAHNALGSSLHTAGVDLAKSL (artificial protein fragment) [compound 10, long Rv3615c fragment]", "recognition of individual peptide (IFN-γ ELISPOT response, Z-scores)": "poorly recognized"},
      {"sequence": "GQWRGAAGTAAQAAVVRFQEAANKQKQELDEISTNIRQAG [compound 7]", "recognition of individual peptide (IFN-γ ELISPOT response, Z-scores)": "far stronger response"},
      {"sequence": "KQSLTKLAAAWGGSGS (artificial protein fragment) [peptide 17, short ESAT-6 peptide]", "recognition of individual peptide (IFN-γ ELISPOT response, Z-scores)": "strong epitope"},
      {"sequence": "MAEMKTDAATLAQEAGNFERISGDLKTQIDQVESTAGSLQ [compound 5]", "recognition of individual peptide (IFN-γ ELISPOT response, Z-scores)": "poorly recognized"},
      {"sequence": "MTENLTVQPERLGVLASHHDNAAVDASSGVEAAAGLGESV (artificial protein fragment) [compound 9, long Rv3615c fragment]", "recognition of individual peptide (IFN-γ ELISPOT response, Z-scores)": "poorly recognized"},
      {"sequence": "NVTSIHSLLDEGKQSLTKLAAAWGGSGSEAYQGVQQKWDA [peptide 2]", "recognition of individual peptide (IFN-γ ELISPOT response, Z-scores)": "poorly and infrequently recognized"},
      {"sequence": "QEAGNFERISGDLKTQ [peptide 25]", "recognition of individual peptide (IFN-γ ELISPOT response, Z-scores)": "strongly recognized; also recorded: recognized promiscuously"},
      {"sequence": "SHHDNAAVDASSGVEAAAGL (artificial protein fragment) [compound 36, short Rv3615c peptide]", "recognition of individual peptide (IFN-γ ELISPOT response, Z-scores)": "poor recognition could be compensated"}
    ]}
  ]
}
